The test addresses DCN1-UBC12 interaction (Homo sapiens (Human), UniProt Q96GG9). The test is described as follows: biochemical. It is filed as binding. To be noted: read-out: TR-FRET IC50.

Read-outs that look alike come from different tables or passages of the source.

The IC50 is the point on the concentration scale where inhibition reaches its midpoint.

Sequence of DCN1-UBC12 interaction (Q96GG9 60-248 limits assumed): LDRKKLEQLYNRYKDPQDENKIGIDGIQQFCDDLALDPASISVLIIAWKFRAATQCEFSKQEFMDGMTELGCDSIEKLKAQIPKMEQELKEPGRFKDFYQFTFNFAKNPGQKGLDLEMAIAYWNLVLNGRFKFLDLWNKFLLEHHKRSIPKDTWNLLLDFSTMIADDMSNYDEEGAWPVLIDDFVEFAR

For `CCCC(C)N1CCC(N(Cc2ccccc2)C(=O)Nc2cc(C)ccc2F)CC1` (stereo not drawn) [A181], the 50% inhibitory concentration (IC50) stood at 19.8 µM. Still for that read-out and setting: the figure for `CCCC(C)N1CCC(N(Cc2ccccc2CNC(=O)CCl)C(=O)Nc2cccc(C(F)(F)F)c2)CC1` (stereo not drawn) [A24] is 0.154 µM; for `CCCC(C)N1CCC(N(Cc2cccnc2)C(=O)Nc2ccc(F)c(C(F)(F)F)c2)CC1` (stereo not drawn) [A55] it is 0.303 µM. `Cc1cc(NC(=O)NC2C(C)CN(Cc3ccccc3)CC2C)no1` (stereo not drawn) [B121]: the IC50 was > 81.9 µM. The same measure, in the same setting: the figure for `CCCC(C)N1CCC(N(Cc2ccccc2)C(=O)Nc2ccc(Cl)nc2)CC1` (stereo not drawn) [A277] is > 68.8 µM. Same read-out and setting: the figure for `O=C(c1ccccc1Br)N1CCC(c2nc3ccccc3s2)CC1` [D8] is 19.8 µM; for `C=CS(=O)(=O)NCCN(C(=O)Nc1cccc(C(F)(F)F)c1)C1CCN(C(C)CCC)CC1` (stereo not drawn) [drawing 839] it is > 41 µM. Regarding `Cc1cnc(-n2ncc(C(=O)N3CCN(C)CC3)c2C2CC2)nc1-c1cccs1` [E55], the IC50 (Table 6, commercial compounds) is > 67.6 µM. Regarding `Cc1cccc(C(=O)NC2C(=O)Nc3c(c(C)nn3C)C2c2ccc(C(C)C)cc2)c1` (stereo not drawn) [F16], the IC50 (Table 7, commercial compounds) was > 67.6 µM. Turning to `COc1ccc(C(=O)N2CCC(C(=O)Nc3cccc(C(F)(F)F)c3)CC2)cc1` [C1, 1-(4-Methoxybenzoyl)-N-(3-(Trifluoromethyl)Phenyl)Piperidine-4-Carboxamide], the IC50 (Table 4, commercial compounds) was 8.07 µM.

As for `CCCC(C)N1CCC(N(Cc2ccccc2)C(=O)Nc2ccc(CC#N)cc2)CC1` (stereo not drawn) [A176], the IC50 was determined as 13.7 µM. On the same count and under the same terms, under `COc1ccc(C)cc1NC(=O)N(Cc1ccc(C)o1)C1CCN(Cc2ccccc2)CC1` [B95] stands > 67.6 µM; under `COc1ccc(NC(=O)N(Cc2ccco2)C2CCN(C(C)=O)CC2)cc1` [B70], > 67.6 µM.

Regarding `CCCC(C)N1CCC(N(Cc2ccc3c(c2)OCO3)C(=O)Nc2ccc(F)c(C(F)(F)F)c2)CC1` (stereo not drawn) [A61], the 50% inhibitory concentration (IC50) came to 0.371 µM.

`O=C(Nc1ccc(Cl)c(Cl)c1)C1CCN(C(=O)c2ccco2)CC1` [C40]: the IC50 (Table 4, commercial compounds) is > 67.6 µM. In the case of `O=C(NC1CCN(Cc2ccc(F)cc2)CC1)C(F)(F)F` [A305], the IC50 was > 92.7 µM. Still for that read-out and setting: the figure for `O=C(Nc1cc(F)cc(C(F)(F)F)c1)N(Cc1ccccc1)C1CCN(Cc2ccc(Cc3ccccc3)cc2)CC1` [A211] is > 21.8 µM. For the compound `CCN(CC)C(=O)c1cnn(-c2ncc(C)c(-c3cccs3)n2)c1C` [E57], the IC50 (Table 6, commercial compounds) is > 67.6 µM. In the case of `O=C(Nc1ccc(Cl)cc1Cl)C1CCN(C(=O)c2ccc(F)cc2)CC1` [C15], the half-maximal inhibitory concentration (IC50) (Table 4, commercial compounds) was > 67.6 µM.

Consider `COc1cc(OC)cc(C(=O)N2CCCC(c3nc4ccccc4s3)C2)c1` (stereo not drawn) [D30], for which the IC50 was > 67.6 µM. `CCCCN1CCC(N(Cc2ccccc2)C(=O)Nc2cc(F)cc(F)c2)CC1` [A142]: the half-maximal inhibitory concentration (IC50) is 4.26 µM. `Cc1cnc(-n2ncc(C(=O)N3CCN(C(C)C)CC3)c2C)nc1-c1cccs1` [E35]: the IC50 (Table 6, commercial compounds) is > 67.6 µM. As for `COCCN1CCN(C(=O)c2cnn(-c3nccc(-c4cccs4)n3)c2C(C)C)CC1` [E17], the concentration for half-maximal inhibition (IC50) (Table 6, commercial compounds) worked out at 34.4 µM. `CCCC(C)N1CCC(N(Cc2ccccc2)C(=O)Nc2ccc(Br)cc2)CC1` (stereo not drawn) [A5]: the IC50 is 0.0559 µM. `CCCN1CCN(C(=O)c2cnn(-c3ncc(C)c(-c4cccs4)n3)c2COC)CC1` [E11]: the IC50 (Table 6, commercial compounds) amounted to 26 µM.

For `COc1cc(C(=O)N2CCC(C(=O)Nc3ccc(Br)cc3)CC2)cc(OC)c1OC` [C24], the concentration for half-maximal inhibition (IC50) (Table 4, commercial compounds) is > 67.6 µM. Regarding `COc1ccc(C(=O)N2CCC(c3nc4ccccc4s3)CC2)cc1OC` [D19], the 50% inhibitory concentration (IC50) is > 62.9 µM.

For the compound `CCCN1CCC(N(CCOC)C(=O)Nc2cccc(C(F)(F)F)c2)CC1` [A248, 1-(2-Methoxyethyl)-1-(1-Propylpiperidin-4-yl)-3-(3-(Trifluoromethyl)Phenyl)Urea], the half-maximal inhibitory concentration (IC50) was > 58.9 µM. Same read-out and setting: the figure for `CCCC(C)N1CCC(N(Cc2ccccc2)C(=O)Nc2nc3c(OC)cccc3s2)CC1` (stereo not drawn) [A301] is > 86.1 µM; for `O=C(c1cccc(C(F)(F)F)c1)N(Cc1ccccc1)C1CC2CCC(C1)N2Cc1ccccc1` (stereo not drawn) [A234] it is > 40.6 µM. As to `CSc1ccc(C2c3c(C)nn(C)c3NC(=O)C2NC(=O)c2cccc(C)c2)cc1` (stereo not drawn) [F6], the IC50 (Table 7, commercial compounds) was 39.5 µM. Take `C=CC(=O)NCCCN(C(=O)Nc1cccc(C(F)(F)F)c1)C1CCN(C(C)CCC)CC1` (stereo not drawn) [drawing 834]: the IC50 stood at 3.33 µM.

For the compound `CCN1CCN(C(=O)c2cnn(-c3nccc(-c4cccs4)n3)c2C(C)C)CC1` [E4], the IC50 (Table 6, commercial compounds) was found to be 13.1 µM.

Regarding `C=CCN(CC=C)C(=O)c1cnn(-c2ncc(C)c(-c3cccs3)n2)c1C` [E48], the half-inhibitory concentration (IC50) (Table 6, commercial compounds) is > 67.6 µM.

For the compound `CCCC(C)N1CCC(N(Cc2ccccc2)C(=O)Nc2cccc(OC(F)(F)F)c2)CC1` (stereo not drawn) [A12], the IC50 amounted to 0.0827 µM.

With `CCN(CC)CCN(C)C(=O)c1cnn(-c2ncc(C)c(-c3cccs3)n2)c1COC` [E38], the concentration for half-maximal inhibition (IC50) (Table 6, commercial compounds) is > 67.6 µM. In the case of `Cc1ccc(C(=O)N2CCC(c3nc4ccccc4s3)CC2)cc1C` [D17], the concentration for half-maximal inhibition (IC50) is > 53.9 µM. Consider `O=C(Nc1cccc(C(F)(F)F)c1)N[C@H]1CCN(Cc2ccccc2)C[C@@H]1O` [A185], for which the IC50 came out at 30 µM. Still for that read-out and setting: under `CCCC(C)N1CCC(N(Cc2ccccc2)C(=O)Nc2ccc3cn[nH]c3c2)CC1` (stereo not drawn) [A108] stands 2.11 µM; under `CCCC(C)N1CCC(N(Cc2ccccc2)C(=O)Nc2cc(Cl)c(O)c(Cl)c2)CC1` (stereo not drawn) [A260], > 62.5 µM.

In the case of `CCCC(C)N1CCC(N(Cc2ccccc2)C(=O)Nc2cccc(-c3ccccc3)c2)CC1` (stereo not drawn) [A129], the IC50 turned out to be 2.67 µM. Same read-out and setting: the figure for `CCCC1CCC(N(Cc2ccccc2)C(=O)c2cccc(C(F)(F)F)c2)CC1` (stereo not drawn) [A193] is < 0.0029 µM; for `CN(C)c1ccc(CN2CCC(N(Cc3ccccc3)C(=O)Nc3cc(F)cc(C(F)(F)F)c3)CC2)c2ccccc12` [A204] it is > 20.2 µM. Regarding `O=C(Nc1ccc(Cl)c(C(F)(F)F)c1)C1CCN(C(=O)c2ccc(Br)cc2)CC1` [C29], under “Table 4, commercial compounds”, the concentration for half-maximal inhibition (IC50) was > 67.6 µM. On to `CCCC(C)N1CCC(N(Cc2ccccc2)C(=O)Nc2cc(C)cc(Cl)c2)CC1` (stereo not drawn) [A99], for which the IC50 amounted to 1.41 µM. With `Cc1cccc(NC(=O)C2CCN(C(=O)c3cccc(F)c3)CC2)c1` [C44], the IC50 (Table 4, commercial compounds) was > 67.6 µM. `CCN(CC)CCN(C)C(=O)c1cnn(-c2nccc(-c3cccs3)n2)c1C(C)C` [E15]: the half-maximal inhibitory concentration (IC50) (Table 6, commercial compounds) was found to be 32.1 µM. Turning to `CCN1CCC(N(Cc2ccco2)C(=O)Nc2ccc(F)c(Cl)c2)CC1` [B104], the concentration for half-maximal inhibition (IC50) was > 70.9 µM. Still for that read-out and setting: the figure for `CCCC(C)N1CCC(N(Cc2ccccc2)C(=O)Nc2cc(C)oc2C(F)(F)F)CC1` (stereo not drawn) [A255] is > 60.2 µM. Turning to `COc1ccc(NC(=O)C2CCN(C(=O)N3CCOc4ccccc43)CC2)cc1` [C53], under “Table 4, commercial compounds”, the IC50 was > 67.6 µM. Consider `CC(C1CCCCC1)N1CCC(N(Cc2ccccc2)C(=O)Nc2cc(F)cc(C(F)(F)F)c2)CC1` (stereo not drawn) [A125], for which the IC50 was determined as 1.77 µM. On the same count and under the same terms, under `C#Cc1ccccc1CN1CCC(N(Cc2ccccc2)C(=O)Nc2cc(F)cc(C(F)(F)F)c2)CC1` [A123] stands 1.13 µM. As to `CC(=O)N1CCN(C(=O)c2cnn(-c3nccc(-c4cccs4)n3)c2C2CC2)CC1` [E24], the half-inhibitory concentration (IC50) (Table 6, commercial compounds) came out at 61.6 µM. For the compound `CCCCN(C(=O)Nc1cc(F)cc(C(F)(F)F)c1)C1CCN(C(C)CCC)CC1` (stereo not drawn) [A84], the 50% inhibitory concentration (IC50) came to 0.917 µM.

As for `O=C(c1ccccc1Cl)N1CCC(c2nc3ccccc3s2)CC1` [D6], the IC50 is 18.5 µM. In the case of `C#CCCCN1CCC(N(Cc2ccccc2NC(=O)CC)C(=O)Nc2cccc(C(F)(F)F)c2)CC1` [A198], the IC50 is > 12.9 µM. Still for that read-out and setting: under “1-Benzyl-1-(1-(Pentan-2-yl)Piperidin-4-yl)-3-(3-(Trifluoromethyl)Phenyl)Urea [A293]” stands > 78.2 µM. Same read-out and setting: under `Cn1nccc1-c1cccc(NC(=O)NC2CCN(Cc3ccccc3)CC2)c1` [A263, 1-(1-Benzylpiperidin-4-yl)-3-(3-(1-Methyl-1H-Pyrazol-5-yl)Phenyl)Urea] stands > 64.6 µM. The same measure, in the same setting: the figure for `CCN1CCC(N(Cc2ccco2)C(=O)Nc2ccc(OC)c(OC)c2)CC1` [B77] is > 67.6 µM. As for `Cc1ccc(NC(=O)C2CCN(C(=O)c3ccccc3C)CC2)cc1Cl` [C14], the IC50 (Table 4, commercial compounds) was > 67.6 µM. For `CCCC(C)N1CCC(N(Cc2ccccc2)C(=O)Nc2cccc(C(C)(C)C)c2)CC1` (stereo not drawn) [A140], the IC50 worked out at 4.2 µM. Still for that read-out and setting: the figure for `CCCC(C)N1CCC(N(Cc2ccccc2)C(=O)Nc2cccc(F)c2)CC1` (stereo not drawn) [A72] is 0.621 µM; for `Cn1ccnc1CN1CCC(N(Cc2ccccc2)C(=O)Nc2cc(F)cc(C(F)(F)F)c2)CC1` [A229] it is > 28.6 µM; for `CCCC(C)N1CCC(N(Cc2ccccc2)C(=O)Nc2cccc(N3CCOCC3)c2)CC1` (stereo not drawn) [A297] it is > 83.6 µM. The same measure, in the same setting: under `O=C(c1ccc(I)cc1)N1CCCC(c2nc3ccccc3s2)C1` (stereo not drawn) [D31] stands > 67.6 µM; under `O=C(Nc1ccncc1[NH2+][O-])NC1CCN(Cc2ccccc2)CC1` [B120], > 79.1 µM. As for `O=C(Nc1ccc(F)c(Cl)c1)N(Cc1ccc2c(c1)OCO2)C1CCN(Cc2ccccc2)CC1` [B16], the IC50 is 50.7 µM. Still for that read-out and setting: the figure for `CCCC(C)N1CCC(N(Cc2ccccc2)C(=O)Nc2ccc(C)cc2F)CC1` (stereo not drawn) [A157] is 7.11 µM.

`CCCCN1CCC(N(Cc2ccccc2)C(=O)Nc2cccc(CC)c2)CC1` [A63]: the 50% inhibitory concentration (IC50) turned out to be 0.413 µM. Same read-out and setting: under `Cc1ccc2[nH]c(C3CCN(Cc4cccc(C(F)(F)F)c4)CC3)nc2c1` [B19] stands < 0.004 µM. As for `COCc1c(C(=O)N2CCN(C(C)C)CC2)cnn1-c1ncc(C)c(-c2cccs2)n1` [E21], the IC50 (Table 6, commercial compounds) is 49.2 µM. Same read-out and setting: under `CSCCCNC(=O)c1cnn(-c2nccc(-c3cccs3)n2)c1C` [E51] stands > 67.6 µM. Regarding `CCCN1CCC(N(Cc2ccccc2)C(=O)Nc2cccc(C(F)(F)F)c2)CC1` [A85, 1-Benzyl-1-(1-Propylpiperidin-4-yl)-3-(3-(Trifluoromethyl)Phenyl)Urea], the IC50 worked out at 0.98 µM. Turning to `O=C(Nc1cccc(C(F)(F)F)c1)N(Cc1ccccc1)C1CC2CCC(C1)N2Cc1ccccc1` (stereo not drawn) [A105], the 50% inhibitory concentration (IC50) worked out at 1.87 µM.

Turning to `CCCC(C)N1CCC(N(Cc2ccccc2)C(=O)Nc2cccc(Cl)c2Cl)CC1` (stereo not drawn) [A103], the IC50 amounted to 1.74 µM. Still for that read-out and setting: under `O=C(Nc1ccc(CN2CCCC2)cc1)Nc1cccc(C(F)(F)F)c1` [B105] stands > 71.3 µM. `CCOc1ccc(C2c3c(C)nn(C)c3NC(=O)C2NC(=O)c2cccc(C)c2)cc1` (stereo not drawn) [F23]: the half-maximal inhibitory concentration (IC50) (Table 7, commercial compounds) was > 67.6 µM.

On to `COc1ccc(C(=O)NC2C(=O)Nc3c(c(C)nn3C)C2c2ccc(Cl)c(Cl)c2)cc1OC` (stereo not drawn) [F30], for which the half-maximal inhibitory concentration (IC50) (Table 7, commercial compounds) was > 67.6 µM.

The values are drawn from patent US11116757B2 (priority 2015, dated 2021).
